Experimental data: patent US10912749B2, “Conjugate acid salt of N,N-dimethylglycine with organic acid, and composition and use thereof” (GUANGZHOU INSIGHTER BIOTECHNOLOGY CO., LTD., priority 2017, dated 2021)
Where a name gives a salt, the structure may show the parent alone. Marks after values point to notes of the source that are not given here.

Assays:
[1] = High-humidity stability test; format: physicochemical; conditions: for hygroscopicity (in words): 25° C. and RH 95%, weight gains at day 5 turned the samples into water-like status; for hygroscopic weight gain Day 5 (%) / hygroscopic weight gain Day 10 (%): 25° C., RH 95%±1%, mean value±standard error, three parallels
Procedure: Method: A KNO3 saturated solution (25° C., […]) was placed in the lower part of a constant-temperature and constant-humidity sealed container. The test samples, three parallels for each test sample, were placed at 25° C. and RH 95%±1% for 10 days, and their average weight gains were measured at day 5 and day 10.

Sanhuang broilers = assay: Breeding experiment in broiler feed (production performance); format: in vivo
Procedure: The experiment was carried out by single-factor randomized design. 1080 22-day-old Sanhuang broilers having similar body weight (averagely 153 g) were collected and randomly divided into 9 groups, 6 replicates in each group, 20 broilers in each replicate, with equal numbers of males and females. The henhouse and utensils were disinfected before the experiment. The broilers were kept in cages in the same henhouse under the same breeding conditions during the experiment. The basic diets mainly composed of corn and soybean meal, and no other antioxidant ingredients and growth promoters were added during the whole breeding process. The groups included a blank group, a control group, and experiment groups 1-7. […] For each replicate, the broilers were weighed (stopped feeding for 12 hours while water supply was maintained) at 42-day-old and their feed consumptions were recorded so as to calculate the average daily feed intake (ADFI), average daily weight gain (ADG) and feed conversion ratio (FCR). The experiment data were analyzed with SPSS18 software. The data were first analyzed by single factor analysis of variance (ANOVA), and if the differences between the groups were significant, multiple comparisons were performed using Duncan's method wherein the significance level was 0.05.

grass carps = assay: Growth promotion experiment in aquatic feed; format: in vivo; conditions: 450 ppm in feed, 8 weeks; for SR (%): survival rate
Procedure: Test fish: The experiment fish were grass carps, born at the year of the test, from Dafeng hatchery in Huizhou City, Guangdong Province. Healthy and lively grass carps of the same size were reared in big net cages (4×2×1.5 m^3) for four weeks before the breeding experiment. The experiment system included floating small net cages (1.1×1.1×1.1 m^3), each small net cage was provided with an aerator and aerated 24 hours every day. […] 384 fish which were similar in body weight and had been starved for 1 day were randomly divided into 8 groups, 4 replicates in each group and 12 fish in each replicate. The fish of each replicate were weighed and transferred to […] net cages, and fed with different test feeds respectively.
Experiment feeds: The experiment feeds were prepared according to Table 6. The groups were respectively provided with different conjugate acid salts of N,N-dimethylglycine with metal and organic acid in the same concentration according to Table 7. Raw materials of the feed were ultra-pulverized, and then turned into floating expanded feed having a particle size of 3 mm by using a feed extruder from Jiangsu Muyang Group Co., Ltd. wherein the extruding temperature was 130° C., and 3% of soybean oil was sprayed on the feed using an oil sprayer. The feed was then sealed and stored in a cool place for later use.
Test management: The experiment was carried out with diet restriction, the diet amount was adjusted once a week, the feeding level (based on initial weight) of each group was exactly the same, and feeding was conducted twice every day (at 7:30 and 15:00). The experiment was carried out for 8 weeks. During the experiment, water quality was monitored regularly to maintain the following conditions: water temperature 26.88±3.08° C., DO>5.0 mg O L^−1, pH 7.8, ammonia nitrogen <0.50 mg N L^−1, and nitrite nitrogen <0.05 mg N L^1.
Parameter statistics: In the experiment, the fish in each net cage were weighed as a whole after starved for 1 day so as to calculate their weight gain (WG, %), feed conversion ratio (FCR) and survival rate (SR, %), through the following formula. Weight gain (WG, %)=100×(average final weight−average initial weight)/average initial weight Feed conversion ratio (FCR)=feed intake/fish weight gain Survival rate (SR, %)=100×fish amount at the end of the test/fish amount at the beginning of the test

| Compound | hygroscopicity (in words) [1] | hygroscopic weight gain Day 5 (%) [1] [%] | hygroscopic weight gain Day 10 (%) [1] [%] | breeding effect with respect to feed conversion efficiency compared with sodium N,N-dimethylglycinate (Sanhuang broilers) | (FCR) (grass carps) | Final weight (grass carps) [g] | Weight gain (%) (grass carps) | SR (%) (grass carps) |
| --- | --- | --- | --- | --- | --- | --- | --- | --- |
| CN(C)CC(=O)O.Cl [Sample 1, N,N-dimethylglycine hydrochloride] | very high hygroscopicity | 79.86 ± 0.94 | 80.69 ± 0.59 | – | – | – | – | – |
| CN(C)CC(=O)[O-].[Na+] [Sample 2, Sodium N,N-dimethylglycinate] | very high hygroscopicity | 49.09 ± 1.14 | 52.44 ± 0.48 | – | – | – | – | – |
| CN(C)CC(=O)[O-].CN(C)CC(=O)[O-].O=C(O)c1ccccc1.O=C(O)c1ccccc1.[Ca+2] [Sample 5, Conjugate acid salt of calcium N,N-dimethylglycinate with benzoic acid] | – | – | 3.69 ± 0.28 | equivalent to that of sodium N,N-dimethylglycinate | 1.48 ± 0.03 | 586.87 ± 10.44 | 134.96 ± 2.82 | 83.10 ± 3.65^b % |
| CN(C)CC(=O)[O-].CN(C)CC(=O)[O-].O=C(O)/C=C/C(=O)O.[Ca+2] [Sample 6, Conjugate acid salt of calcium N,N-dimethylglycinate with fumaric acid] | – | – | – | – | 1.48 ± 0.03 | 589.33 ± 12.75 | 138.98 ± 3.02 | 83.90 ± 5.30^b % |
| CCCCCCCCCCCCCC(=O)O.CCCCCCCCCCCCCC(=O)O.CN(C)CC(=O)[O-].CN(C)CC(=O)[O-].[Ca+2] [Sample 7, Conjugate acid salt of calcium N,N-dimethylglycinate with tetradecanoic acid] | – | – | 3.06 ± 0.29 | – | 1.46 ± 0.04 | 585.22 ± 11.23 | 134.40 ± 2.90 | 73.00 ± 3.63^b % |
| CN(C)CC(=O)[O-].CN(C)CC(=O)[O-].O=C(O)c1ccccc1.O=C(O)c1ccccc1.[Cu+2] [Sample 8, Conjugate acid salt of copper N,N-dimethylglycinate with benzoic acid] | – | – | – | – | 1.41 ± 0.03 | 598.68 ± 9.66 | 143.40 ± 10.09 | 80.04 ± 3.80^b % |
| CN(C)CC(=O)[O-].CN(C)CC(=O)[O-].O=C(O)/C=C/C(=O)O.[Cu+2] [Sample 9, Conjugate acid salt of copper N,N-dimethylglycinate with fumaric acid] | – | – | – | – | 1.43 ± 0.03 | 598.12 ± 9.27 | 139.12 ± 2.34 | 83.96 ± 5.68^b % |
| CN(C)CC(=O)[O-].CN(C)CC(=O)[O-].O=C(O)c1ccccc1.O=C(O)c1ccccc1.[Zn+2] [Sample 10, Conjugate acid salt of zinc N,N-dimethylglycinate with benzoic acid] | – | – | – | – | 1.45 ± 0.03 | 597.66 ± 9.69 | 133.08 ± 4.70 | 78.04 ± 4.21^b % |
| CN(C)CC(=O)[O-].CN(C)CC(=O)[O-].O=C(O)/C=C/C(=O)O.[Zn+2] [Sample 11, Conjugate acid salt of zinc N,N-dimethylglycinate with fumaric acid] | – | – | – | – | 1.44 ± 0.02 | 600.00 ± 9.30 | 139.98 ± 3.58 | 84.94 ± 4.26^b % |
| CN(C)CC(=O)[O][Zn][O]C(=O)CN(C)C [Sample 11, Conjugate acid salt of zinc N,N-dimethylglycinate with fumaric acid] | – | – | 2.88 ± 0.22 | – | – | – | – | – |
| Calcium N,N-dimethylglycinate [Sample 3] | very high hygroscopicity | 38.40 ± 0.22 | 41.83 ± 0.35 | – | – | – | – | – |
